Experimental data as given in publication PMC4077706, “Lifting the Mask: Identification of New Small Molecule Inhibitors of Uropathogenic Escherichia coli Group 2 Capsule Biogenesis” (PLoS ONE, 2014).
pIC50: −log10 of the molar value. Read-outs that look alike come from different tables or passages of the source.

What was measured:
Melatonin MT1 = target: T1, Melatonin MT1 (Homo sapiens, UniProt P48039); settings: cited from earlier work
T1 construct: host or cells: CHO-K1 cells

Opiate δ1 (OP1, DOP) = Opiate δ1 (OP1, DOP) (Homo sapiens, UniProt P41143); settings: cited from earlier work
[1] = cited from earlier work
[2] = target: Serotonin (5-Hydroxytryptamine) 5-HT2B (Homo sapiens, UniProt P41595); settings: cited from earlier work
[3] = target: Serotonin (5-Hydroxytryptamine) 5-HT3 (Homo sapiens, UniProt P46098); settings: cited from earlier work
[4] = assay standard, general statement; cited from earlier work
Muscarinic M1 [5] = target: T2, Muscarinic M1 (Homo sapiens, UniProt P11229); experiment: Radioligand binding 252610; settings: read-out: IC50 Concurrent
T2 construct: host or cells: CHO-K1 cells

Muscarinic M1 [6] = target: T2, Muscarinic M1; settings: cited from earlier work
Muscarinic M2 = target: T3, Muscarinic M2 (Homo sapiens, UniProt P08172); settings: cited from earlier work
T3 construct: host or cells: CHO-K1 cells

Muscarinic M3 = Muscarinic M3 (Homo sapiens, UniProt P20309); settings: cited from earlier work
[7] = target: Transporter, Dopamine (DAT) (Homo sapiens, UniProt Q01959); settings: cited from earlier work
Chain of Transporter, Dopamine (DAT) (Q01959 whole entry): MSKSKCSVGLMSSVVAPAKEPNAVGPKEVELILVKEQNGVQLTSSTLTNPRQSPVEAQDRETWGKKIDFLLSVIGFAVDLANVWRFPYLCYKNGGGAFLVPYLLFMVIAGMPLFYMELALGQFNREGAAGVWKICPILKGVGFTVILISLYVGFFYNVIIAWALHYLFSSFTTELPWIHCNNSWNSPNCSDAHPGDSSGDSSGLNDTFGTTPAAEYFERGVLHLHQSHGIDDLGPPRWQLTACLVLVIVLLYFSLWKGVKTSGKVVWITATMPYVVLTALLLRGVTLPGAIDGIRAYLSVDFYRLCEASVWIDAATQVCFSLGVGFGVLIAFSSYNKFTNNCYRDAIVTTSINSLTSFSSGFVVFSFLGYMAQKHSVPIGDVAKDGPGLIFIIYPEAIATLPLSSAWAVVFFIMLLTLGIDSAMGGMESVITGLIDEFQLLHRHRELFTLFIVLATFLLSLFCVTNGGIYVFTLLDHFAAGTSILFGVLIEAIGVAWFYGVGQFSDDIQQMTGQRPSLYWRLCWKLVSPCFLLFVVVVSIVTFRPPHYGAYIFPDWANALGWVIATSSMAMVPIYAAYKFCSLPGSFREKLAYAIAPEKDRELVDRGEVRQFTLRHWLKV

T2 sequence (P11229 whole entry): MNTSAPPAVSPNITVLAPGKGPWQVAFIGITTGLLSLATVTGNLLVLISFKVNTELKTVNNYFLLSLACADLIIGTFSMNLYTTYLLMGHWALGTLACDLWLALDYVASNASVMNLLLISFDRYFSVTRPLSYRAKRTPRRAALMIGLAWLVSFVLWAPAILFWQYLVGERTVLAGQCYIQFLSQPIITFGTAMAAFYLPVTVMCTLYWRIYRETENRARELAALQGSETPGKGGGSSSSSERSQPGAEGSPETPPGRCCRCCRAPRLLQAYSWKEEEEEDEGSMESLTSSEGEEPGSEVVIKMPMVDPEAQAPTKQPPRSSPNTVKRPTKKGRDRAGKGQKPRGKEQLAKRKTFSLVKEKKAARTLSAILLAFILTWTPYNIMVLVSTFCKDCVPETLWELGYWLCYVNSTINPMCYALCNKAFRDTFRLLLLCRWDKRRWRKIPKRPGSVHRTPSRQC
Chain of Muscarinic M3 (P20309 whole entry): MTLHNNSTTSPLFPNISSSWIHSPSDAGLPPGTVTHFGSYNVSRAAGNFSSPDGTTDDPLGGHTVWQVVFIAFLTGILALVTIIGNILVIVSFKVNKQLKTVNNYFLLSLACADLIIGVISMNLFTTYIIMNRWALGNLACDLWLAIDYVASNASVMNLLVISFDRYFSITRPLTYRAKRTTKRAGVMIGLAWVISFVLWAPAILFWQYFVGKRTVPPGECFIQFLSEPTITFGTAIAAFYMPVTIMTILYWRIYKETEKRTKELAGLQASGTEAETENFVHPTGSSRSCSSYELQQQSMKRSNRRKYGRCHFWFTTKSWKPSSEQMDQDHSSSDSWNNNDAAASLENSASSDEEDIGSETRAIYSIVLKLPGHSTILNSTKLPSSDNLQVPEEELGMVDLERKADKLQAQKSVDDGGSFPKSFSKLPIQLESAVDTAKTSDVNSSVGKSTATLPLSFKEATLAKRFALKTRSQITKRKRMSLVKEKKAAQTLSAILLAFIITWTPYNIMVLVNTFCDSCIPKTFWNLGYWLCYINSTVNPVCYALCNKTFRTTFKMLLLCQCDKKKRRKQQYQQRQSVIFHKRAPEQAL
T1 sequence (P48039 whole entry): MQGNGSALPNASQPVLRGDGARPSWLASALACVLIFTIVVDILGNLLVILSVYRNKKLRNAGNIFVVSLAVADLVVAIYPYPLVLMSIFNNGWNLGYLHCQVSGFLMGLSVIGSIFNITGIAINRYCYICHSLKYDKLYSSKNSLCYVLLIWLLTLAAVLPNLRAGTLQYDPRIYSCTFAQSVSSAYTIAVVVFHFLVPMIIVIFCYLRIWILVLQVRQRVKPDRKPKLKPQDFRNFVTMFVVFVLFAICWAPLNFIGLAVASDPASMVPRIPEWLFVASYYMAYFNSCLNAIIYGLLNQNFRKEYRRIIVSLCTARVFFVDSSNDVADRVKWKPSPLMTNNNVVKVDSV
Chain of Serotonin (5-Hydroxytryptamine) 5-HT2B (P41595 whole entry): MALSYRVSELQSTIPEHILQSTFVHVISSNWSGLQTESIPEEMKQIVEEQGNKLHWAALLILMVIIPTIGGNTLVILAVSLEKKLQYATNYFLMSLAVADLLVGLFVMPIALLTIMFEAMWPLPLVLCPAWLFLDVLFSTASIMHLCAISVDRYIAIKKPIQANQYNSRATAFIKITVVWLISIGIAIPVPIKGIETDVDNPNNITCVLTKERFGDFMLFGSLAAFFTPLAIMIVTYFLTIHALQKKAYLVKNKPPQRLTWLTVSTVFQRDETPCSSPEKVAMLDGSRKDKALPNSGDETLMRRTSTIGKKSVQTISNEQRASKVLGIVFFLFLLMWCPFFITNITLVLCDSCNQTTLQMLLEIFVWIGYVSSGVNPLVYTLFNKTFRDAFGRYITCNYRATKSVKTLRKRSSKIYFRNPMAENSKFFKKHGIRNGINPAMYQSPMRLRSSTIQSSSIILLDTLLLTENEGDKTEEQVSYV
Chain of Opiate δ1 (OP1, DOP) (P41143 whole entry): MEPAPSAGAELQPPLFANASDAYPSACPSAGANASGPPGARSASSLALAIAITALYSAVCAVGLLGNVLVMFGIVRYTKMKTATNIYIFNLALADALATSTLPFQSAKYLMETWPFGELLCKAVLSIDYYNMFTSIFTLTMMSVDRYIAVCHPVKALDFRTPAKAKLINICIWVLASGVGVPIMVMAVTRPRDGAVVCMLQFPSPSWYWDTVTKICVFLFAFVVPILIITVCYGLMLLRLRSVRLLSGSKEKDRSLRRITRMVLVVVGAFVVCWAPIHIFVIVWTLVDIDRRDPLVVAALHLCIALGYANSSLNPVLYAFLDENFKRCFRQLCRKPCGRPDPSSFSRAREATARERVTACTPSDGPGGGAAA
Chain of Serotonin (5-Hydroxytryptamine) 5-HT3 (P46098 24-478): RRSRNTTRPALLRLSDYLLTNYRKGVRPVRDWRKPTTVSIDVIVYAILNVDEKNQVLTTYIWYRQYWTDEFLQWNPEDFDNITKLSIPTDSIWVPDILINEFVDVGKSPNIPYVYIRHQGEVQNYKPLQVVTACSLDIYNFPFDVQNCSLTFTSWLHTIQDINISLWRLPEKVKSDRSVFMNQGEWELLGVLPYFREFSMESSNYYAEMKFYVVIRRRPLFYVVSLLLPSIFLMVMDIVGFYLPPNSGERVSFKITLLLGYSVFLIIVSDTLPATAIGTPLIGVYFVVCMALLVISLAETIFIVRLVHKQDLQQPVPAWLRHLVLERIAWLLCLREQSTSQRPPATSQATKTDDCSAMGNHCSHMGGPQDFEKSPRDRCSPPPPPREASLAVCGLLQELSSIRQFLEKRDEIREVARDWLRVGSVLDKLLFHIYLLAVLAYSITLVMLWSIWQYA
T3 sequence (P08172 whole entry): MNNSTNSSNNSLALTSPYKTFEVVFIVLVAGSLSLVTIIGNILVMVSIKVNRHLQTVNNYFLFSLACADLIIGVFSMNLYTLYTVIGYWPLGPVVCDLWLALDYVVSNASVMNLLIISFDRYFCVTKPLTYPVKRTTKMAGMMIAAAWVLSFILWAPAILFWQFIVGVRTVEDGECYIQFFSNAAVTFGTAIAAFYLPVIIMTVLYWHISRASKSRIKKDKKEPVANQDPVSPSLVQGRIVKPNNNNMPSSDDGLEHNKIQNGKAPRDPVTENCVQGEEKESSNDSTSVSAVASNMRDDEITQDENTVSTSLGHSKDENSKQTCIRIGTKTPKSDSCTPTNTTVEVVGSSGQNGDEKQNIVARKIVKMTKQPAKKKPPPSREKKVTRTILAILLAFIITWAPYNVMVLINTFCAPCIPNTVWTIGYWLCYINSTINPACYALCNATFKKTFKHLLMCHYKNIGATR

COc1ccc2[nH]cc(CCNC(C)=O)c2c1 [Melatonin]
nH Historical (Melatonin MT1): 0.70

Oc1ccc2c3c1O[C@H]1c4[nH]c5ccccc5c4C[C@@]4(O)[C@@H](C2)N(CC2CC2)CC[C@]314 [Naltrindole]
nH Historical (Opiate δ1 (OP1, DOP)): 1.0

CCN(CC)CCOC(=O)c1ccc(N)cc1 [Procaine]
stability in human plasma of standard [1]: highly unstable

O=C(c1ccc(F)cc1)C1CCN(CCn2c(=O)[nH]c3ccccc3c2=O)CC1 [Ketanserin]
nH Historical [2]: 0.60

CN1[C@@H]2CC[C@H]1C[C@@H](OC(=O)c1cc(Cl)cc(Cl)c1)C2 [MDL 72222]
nH Historical [3]: 0.80

OCCN(CCO)c1nc(N2CCCCC2)c2nc(N(CCO)CCO)nc(N3CCCCC3)c2n1 [Dipyridamole]
solubility of standard [4]: poorly to moderately soluble

C[N+]1(C)CCC(OC(=O)C(c2ccccc2)c2ccccc2)CC1.[I-] [Compound 4-DAMP, 4-DAMP]
pIC50 (Muscarinic M1 [5]): 8.26
nH Historical (Muscarinic M1 [6]): 1.0
pIC50 (Muscarinic M1 [6]; read-out: IC50 Historical): 8.35
nH Historical (Muscarinic M2): 1.0
nH Historical (Muscarinic M3): 1.10

Fc1ccc(C(OCCN2CCN(CCCc3ccccc3)CC2)c2ccc(F)cc2)cc1 [GBR-12909]
nH Historical [7]: 0.90
